What was measured:
[1] = system: Neutrophil; assay: Inhibition of superoxide production in human neutrophils; format: functional, cell-based
[2] = system: HL-60; assay: Antiproliferative activity against human HL60 cells; format: functional, cell-based

| IC50 [1] [µM] | IC50 [2] [µM] | SMILES |
| --- | --- | --- |
| 238 | 5.6 | C=CC(C)(C)c1cc2c(cc1O)C=CC(C)(C)O2 |
| 29 | 2.7 | C=CC(C)(C)c1ccc(O)c(CC=C(C)C)c1 |
| 2.1 | 0.34 | C=CC(C)(C)C1=CC(=O)C(CC=C(C)C)=CC1=O |
| 1.5 | 73 | O=C1C2=C(C=CC(C(=O)O)N2)C(=O)C2=C1NCCS2(=O)=O (stereo not drawn) |

Source: ChEMBL document CHEMBL1141439, “An antiproliferative bis-prenylated quinone from the New Zealand brown alga Perithalia capillaris” (J Nat Prod, 2007)
